Source: ChEMBL document CHEMBL1201862, “PubChem BioAssay data set” (2004)
The source made the active and inactive calls.

What was measured:
[1] = molecular target: T1, Tyrosine-protein phosphatase non-receptor type 7 (Homo sapiens, UniProt P35236); format: functional
T1 sequence (P35236 whole entry): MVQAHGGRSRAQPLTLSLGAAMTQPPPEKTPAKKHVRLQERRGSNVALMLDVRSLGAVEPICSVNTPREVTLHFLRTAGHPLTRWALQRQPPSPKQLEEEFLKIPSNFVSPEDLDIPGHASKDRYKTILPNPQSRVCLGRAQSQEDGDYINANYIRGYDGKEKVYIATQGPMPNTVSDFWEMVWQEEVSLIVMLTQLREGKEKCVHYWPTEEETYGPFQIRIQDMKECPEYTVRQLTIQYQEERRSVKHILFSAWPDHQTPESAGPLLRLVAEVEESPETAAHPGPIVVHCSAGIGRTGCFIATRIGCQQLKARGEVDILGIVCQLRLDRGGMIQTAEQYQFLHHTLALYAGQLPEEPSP

[2] = molecular target: Large T antigen (Simian virus 40, UniProt P03070); format: functional, Betapolyomavirus macacae;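 note: Confirmatory-stage PubChem screen for compounds that inhibit SV40 T antigen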
Chain of Large T antigen (P03070 whole entry): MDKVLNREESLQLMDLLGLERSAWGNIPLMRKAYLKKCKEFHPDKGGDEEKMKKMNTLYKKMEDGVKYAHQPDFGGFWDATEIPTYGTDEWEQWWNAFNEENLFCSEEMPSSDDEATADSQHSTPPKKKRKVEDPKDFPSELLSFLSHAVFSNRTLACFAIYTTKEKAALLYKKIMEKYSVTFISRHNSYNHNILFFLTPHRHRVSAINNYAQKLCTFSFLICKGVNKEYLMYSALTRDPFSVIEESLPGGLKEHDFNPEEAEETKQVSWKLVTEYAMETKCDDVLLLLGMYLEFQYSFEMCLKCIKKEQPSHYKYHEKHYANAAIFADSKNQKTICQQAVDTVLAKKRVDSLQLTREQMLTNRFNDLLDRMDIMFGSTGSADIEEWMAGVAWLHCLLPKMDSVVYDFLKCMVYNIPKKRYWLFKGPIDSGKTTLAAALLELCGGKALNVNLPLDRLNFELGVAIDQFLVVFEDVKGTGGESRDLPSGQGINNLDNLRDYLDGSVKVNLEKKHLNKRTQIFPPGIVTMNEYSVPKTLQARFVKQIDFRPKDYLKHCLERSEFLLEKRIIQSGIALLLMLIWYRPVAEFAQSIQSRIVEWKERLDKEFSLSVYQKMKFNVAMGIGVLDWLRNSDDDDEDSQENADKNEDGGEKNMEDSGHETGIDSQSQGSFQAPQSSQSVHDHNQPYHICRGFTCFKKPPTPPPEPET

[3] = molecular target: T2, Tyrosine-protein phosphatase non-receptor type 22 (Homo sapiens, UniProt Q9Y2R2); format: functional
T2 sequence (Q9Y2R2 whole entry): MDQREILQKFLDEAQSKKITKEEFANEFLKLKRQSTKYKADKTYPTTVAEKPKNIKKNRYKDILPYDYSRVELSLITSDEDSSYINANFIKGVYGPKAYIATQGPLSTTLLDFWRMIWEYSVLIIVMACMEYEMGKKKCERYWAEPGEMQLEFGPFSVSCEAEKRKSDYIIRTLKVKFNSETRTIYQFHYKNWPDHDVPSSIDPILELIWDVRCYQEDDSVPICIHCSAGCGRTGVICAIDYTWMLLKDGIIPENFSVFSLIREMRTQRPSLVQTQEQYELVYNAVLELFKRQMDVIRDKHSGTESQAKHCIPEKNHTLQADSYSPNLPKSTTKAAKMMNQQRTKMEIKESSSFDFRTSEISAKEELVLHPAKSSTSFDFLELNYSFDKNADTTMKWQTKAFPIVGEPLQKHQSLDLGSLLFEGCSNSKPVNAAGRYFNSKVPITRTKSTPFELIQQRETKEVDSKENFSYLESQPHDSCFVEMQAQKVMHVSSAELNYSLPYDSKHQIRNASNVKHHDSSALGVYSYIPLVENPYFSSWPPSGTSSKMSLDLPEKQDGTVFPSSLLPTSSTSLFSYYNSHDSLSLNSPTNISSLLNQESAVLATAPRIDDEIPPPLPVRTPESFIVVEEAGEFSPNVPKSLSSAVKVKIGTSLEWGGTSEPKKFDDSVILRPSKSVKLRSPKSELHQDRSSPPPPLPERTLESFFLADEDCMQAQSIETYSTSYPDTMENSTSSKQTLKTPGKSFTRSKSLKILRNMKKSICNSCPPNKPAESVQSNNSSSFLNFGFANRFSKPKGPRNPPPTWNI

[4] = molecular target: T2, Tyrosine-protein phosphatase non-receptor type 22; format: functional; remark: listed apart in the source
[5] = tested on: HEK293; test: NOD1 signaling inhibitors, primary screen, cell-based, luminescence, uHTS (AID 1578); format: functional; conditions: Homo sapiens
[6] = tested on: HEK293; test: cells; format: functional, cell-based; conditions: Homo sapiens
[7] = tested on: HEK293; test: cells; format: functional, cell-based; conditions: Homo sapiens; remark: listed apart in the source
[8] = molecular target: T3, Nucleotide-binding oligomerization domain-containing protein 2 (Homo sapiens, UniProt Q9HC29); test: NOD2 signaling inhibitors, cell-based, luminescence, uHTS, HEK293 (AID 1566); format: functional
T3 sequence (Q9HC29 whole entry, the tested form may be a part): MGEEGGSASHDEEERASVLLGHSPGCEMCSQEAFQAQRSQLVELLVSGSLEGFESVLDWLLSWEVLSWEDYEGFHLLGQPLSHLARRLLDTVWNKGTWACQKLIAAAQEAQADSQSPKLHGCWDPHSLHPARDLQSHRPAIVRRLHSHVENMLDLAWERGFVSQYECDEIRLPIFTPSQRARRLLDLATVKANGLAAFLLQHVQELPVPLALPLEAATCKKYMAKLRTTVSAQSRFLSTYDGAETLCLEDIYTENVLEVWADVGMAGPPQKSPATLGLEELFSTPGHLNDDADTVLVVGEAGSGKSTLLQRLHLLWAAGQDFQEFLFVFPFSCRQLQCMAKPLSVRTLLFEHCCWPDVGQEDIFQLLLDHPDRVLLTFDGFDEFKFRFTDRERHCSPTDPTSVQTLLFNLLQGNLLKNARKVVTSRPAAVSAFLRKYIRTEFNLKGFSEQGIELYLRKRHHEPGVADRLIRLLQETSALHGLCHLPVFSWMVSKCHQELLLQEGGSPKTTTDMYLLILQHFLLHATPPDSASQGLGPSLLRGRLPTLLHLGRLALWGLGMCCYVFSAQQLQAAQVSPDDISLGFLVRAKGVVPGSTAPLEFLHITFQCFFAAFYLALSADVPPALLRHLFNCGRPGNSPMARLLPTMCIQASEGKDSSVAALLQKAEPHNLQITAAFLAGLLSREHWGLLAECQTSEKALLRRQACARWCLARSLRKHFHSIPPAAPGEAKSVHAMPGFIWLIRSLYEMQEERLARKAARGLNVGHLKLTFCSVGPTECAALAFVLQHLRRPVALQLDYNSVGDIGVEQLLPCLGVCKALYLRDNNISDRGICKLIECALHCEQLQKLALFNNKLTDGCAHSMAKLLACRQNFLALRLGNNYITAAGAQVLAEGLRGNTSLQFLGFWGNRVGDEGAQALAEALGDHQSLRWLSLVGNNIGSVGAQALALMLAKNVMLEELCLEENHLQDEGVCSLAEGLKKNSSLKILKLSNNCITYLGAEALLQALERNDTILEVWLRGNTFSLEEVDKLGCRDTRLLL

[9] = tested on: HEK293; test: NOD2 signaling inhibitors in MDP-stimulated cells, cell-based, uHTS, luminescence (AID 2001); format: functional; conditions: Homo sapiens
[10] = tested on: HEK293; test: cells; format: functional, cell-based; conditions: Homo sapiens; remark: listed apart in the source
[11] = molecular target: Tumor necrosis factor (Homo sapiens, UniProt P01375); test: TNFa-triggered NF-kB activation inhibitors, SAR follow-up, cell-based, revised (AID 2337); format: functional
Chain of Tumor necrosis factor (P01375 whole entry, the tested form may be a part): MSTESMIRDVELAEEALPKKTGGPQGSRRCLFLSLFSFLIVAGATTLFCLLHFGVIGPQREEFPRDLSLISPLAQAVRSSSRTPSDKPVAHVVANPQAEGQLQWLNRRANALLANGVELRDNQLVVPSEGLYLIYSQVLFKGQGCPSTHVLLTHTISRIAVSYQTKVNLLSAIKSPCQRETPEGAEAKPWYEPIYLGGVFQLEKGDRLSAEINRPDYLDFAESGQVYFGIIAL

[12] = molecular target: Nucleotide-binding oligomerization domain-containing protein 1 (Homo sapiens, UniProt Q9Y239); test: NOD1 signaling inhibitors, SAR follow-up, revised (AID 2333); format: functional
Chain of Nucleotide-binding oligomerization domain-containing protein 1 (Q9Y239 whole entry, the tested form may be a part): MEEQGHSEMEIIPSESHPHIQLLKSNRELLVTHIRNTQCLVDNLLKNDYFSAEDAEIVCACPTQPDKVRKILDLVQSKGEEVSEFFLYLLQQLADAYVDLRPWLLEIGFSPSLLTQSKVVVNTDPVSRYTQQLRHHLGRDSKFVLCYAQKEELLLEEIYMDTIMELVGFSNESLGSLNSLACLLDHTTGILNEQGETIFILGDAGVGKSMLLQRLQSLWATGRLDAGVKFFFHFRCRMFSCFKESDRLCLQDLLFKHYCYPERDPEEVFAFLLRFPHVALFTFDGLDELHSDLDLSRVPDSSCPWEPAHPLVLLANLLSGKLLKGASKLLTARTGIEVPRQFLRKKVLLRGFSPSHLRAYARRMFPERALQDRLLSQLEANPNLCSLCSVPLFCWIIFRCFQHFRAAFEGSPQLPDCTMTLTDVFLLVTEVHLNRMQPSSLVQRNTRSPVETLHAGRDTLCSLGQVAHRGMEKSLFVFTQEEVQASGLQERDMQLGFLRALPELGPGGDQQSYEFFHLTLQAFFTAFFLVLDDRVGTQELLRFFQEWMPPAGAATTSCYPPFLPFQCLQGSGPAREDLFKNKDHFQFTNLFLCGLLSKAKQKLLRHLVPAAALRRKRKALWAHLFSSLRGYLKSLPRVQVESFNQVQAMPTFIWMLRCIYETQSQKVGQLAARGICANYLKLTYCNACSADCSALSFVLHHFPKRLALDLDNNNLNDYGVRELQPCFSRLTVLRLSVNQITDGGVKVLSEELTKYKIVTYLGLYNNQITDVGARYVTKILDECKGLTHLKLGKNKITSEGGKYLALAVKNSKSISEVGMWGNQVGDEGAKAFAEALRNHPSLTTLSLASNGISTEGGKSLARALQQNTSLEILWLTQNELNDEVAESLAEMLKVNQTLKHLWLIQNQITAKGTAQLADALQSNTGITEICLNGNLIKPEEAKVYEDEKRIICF

[13] = molecular target: T3, Nucleotide-binding oligomerization domain-containing protein 2; test: PubChem AID 2334; format: functional
[14] = tested on: HEK293; test: cells; conditions: Homo sapiens
[15] = tested on: Streptococcus sp. 'group A'; test: growth inhibition of control SK(-) GAS strain, dose response, counter-screen for streptokinase expression inhibitor project, luminescence, kanamycin, BacTiterGlo, confirmation (AID 1900); format: functional, organism-based
[16] = molecular target: T4, Streptokinase A (Streptococcus pyogenes serotype M1, UniProt P10520); test: S. pyogenes streptokinase expression inhibitors, potency, dose response, plasminogen activation absorbance, OD405 (AID 1914); format: functional, Streptococcus pyogenes M1 GAS;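 note: secreted streptokinase activity via plasminogen activation per viability signal from cell pellet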
T4 sequence (P10520 whole entry): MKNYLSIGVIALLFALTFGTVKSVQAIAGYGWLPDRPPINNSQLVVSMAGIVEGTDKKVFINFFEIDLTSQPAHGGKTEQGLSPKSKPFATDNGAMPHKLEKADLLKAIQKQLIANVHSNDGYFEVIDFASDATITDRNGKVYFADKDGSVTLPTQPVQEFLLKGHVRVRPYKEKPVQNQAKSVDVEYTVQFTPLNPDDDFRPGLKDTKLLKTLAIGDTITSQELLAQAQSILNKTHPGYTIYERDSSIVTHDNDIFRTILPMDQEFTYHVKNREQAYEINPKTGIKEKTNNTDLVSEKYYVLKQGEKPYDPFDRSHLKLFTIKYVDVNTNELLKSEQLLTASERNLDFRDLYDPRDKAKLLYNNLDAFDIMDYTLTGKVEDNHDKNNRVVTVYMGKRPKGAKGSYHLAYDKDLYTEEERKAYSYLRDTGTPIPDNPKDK

[17] = molecular target: T5, E3 ubiquitin-protein ligase XIAP (Homo sapiens, UniProt P98170); test: Counter Screen using XIAP-Bir3 for Chemical Antagonists of Bir1/2 domains of IAP-family anti-apoptotic proteins. [Related pubchem assays (depositor defined):AID1018, AID1449, AID1514, AID1638, AID1749, AID1750, AID488957, AID488963]
T5 sequence (P98170 whole entry): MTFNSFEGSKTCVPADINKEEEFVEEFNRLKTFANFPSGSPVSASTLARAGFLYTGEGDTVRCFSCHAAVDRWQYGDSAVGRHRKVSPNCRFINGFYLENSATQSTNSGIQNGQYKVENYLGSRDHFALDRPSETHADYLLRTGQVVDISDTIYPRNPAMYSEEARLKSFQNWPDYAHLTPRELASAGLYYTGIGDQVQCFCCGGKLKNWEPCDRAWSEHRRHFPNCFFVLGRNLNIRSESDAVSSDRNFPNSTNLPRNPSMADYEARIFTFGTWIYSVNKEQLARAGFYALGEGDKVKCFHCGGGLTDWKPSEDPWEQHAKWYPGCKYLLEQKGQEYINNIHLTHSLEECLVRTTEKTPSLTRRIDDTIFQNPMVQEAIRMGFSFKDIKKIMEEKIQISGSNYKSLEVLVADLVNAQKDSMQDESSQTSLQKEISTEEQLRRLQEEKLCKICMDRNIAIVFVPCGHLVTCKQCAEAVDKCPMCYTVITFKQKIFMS

[18] = molecular target: T5, E3 ubiquitin-protein ligase XIAP; test: XIAP antagonists, biochemical, IAP family, fluorescence polarization (AID 1018); format: functional
[19] = tested on: Streptococcus; test: Group A Streptococcus viability loss, dose response, counter-screen for streptokinase expression inhibitor project, luminescence, BacTiterGlo (AID 1915); format: functional, organism-based;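 note: potency for reduction of bacterial viability or growth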
[20] = molecular target: T6, Carboxy-terminal domain RNA polymerase II polypeptide A small phosphatase 1 (Homo sapiens, UniProt Q9GZU7); test: inhibitors of CTDSP1, concentration-response testing, biochemical assay, absorbance-based, actives from ultra-high-throughput screening (AID 540297); format: functional
T6 sequence (Q9GZU7 whole entry): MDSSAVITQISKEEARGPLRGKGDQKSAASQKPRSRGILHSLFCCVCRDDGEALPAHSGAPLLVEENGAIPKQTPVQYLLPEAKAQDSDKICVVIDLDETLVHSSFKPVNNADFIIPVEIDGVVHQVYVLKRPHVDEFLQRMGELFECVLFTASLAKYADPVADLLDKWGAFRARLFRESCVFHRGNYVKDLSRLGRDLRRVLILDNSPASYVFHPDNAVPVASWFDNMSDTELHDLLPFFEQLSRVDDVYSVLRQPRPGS

[21] = molecular target: T7, Dual specificity protein phosphatase 3 (Homo sapiens, UniProt P51452); test: VHR1 phosphatase inhibitors, primary screen, biochemical, absorbance, uHTS (AID 1654)
T7 sequence (P51452 whole entry): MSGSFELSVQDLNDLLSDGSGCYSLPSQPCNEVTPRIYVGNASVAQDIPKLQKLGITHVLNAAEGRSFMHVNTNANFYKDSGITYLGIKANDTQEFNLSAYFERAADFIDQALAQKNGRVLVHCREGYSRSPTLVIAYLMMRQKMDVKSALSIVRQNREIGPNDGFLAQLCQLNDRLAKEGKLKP

[22] = molecular target: T7, Dual specificity protein phosphatase 3; test: VHR1 phosphatase inhibitors, biochemical (AID 1878)
[23] = molecular target: T8, Dual specificity protein phosphatase 6 (Rattus norvegicus, UniProt Q64346); test: MKP-3 phosphatase inhibitors, primary screen, biochemical, rat enzyme, in vitro (AID 425)
T8 sequence (Q64346 whole entry): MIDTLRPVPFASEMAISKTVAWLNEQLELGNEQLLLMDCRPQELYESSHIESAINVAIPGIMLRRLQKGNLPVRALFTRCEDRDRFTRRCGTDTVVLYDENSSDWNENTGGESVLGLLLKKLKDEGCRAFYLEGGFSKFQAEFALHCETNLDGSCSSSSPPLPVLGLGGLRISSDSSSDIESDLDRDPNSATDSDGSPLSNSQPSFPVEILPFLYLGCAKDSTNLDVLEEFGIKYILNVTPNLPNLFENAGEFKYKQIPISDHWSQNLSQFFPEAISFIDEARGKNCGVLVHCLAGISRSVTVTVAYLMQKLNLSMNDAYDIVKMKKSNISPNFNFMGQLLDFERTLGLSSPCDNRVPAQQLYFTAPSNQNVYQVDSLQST

[24] = molecular target: T9, Cysteine protease ATG4B (Homo sapiens, UniProt Q9Y4P1); format: functional;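 note: Fluorescence-based dose-response confirmation assay measuring inhibition of ATG4B activity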
T9 sequence (Q9Y4P1 whole entry): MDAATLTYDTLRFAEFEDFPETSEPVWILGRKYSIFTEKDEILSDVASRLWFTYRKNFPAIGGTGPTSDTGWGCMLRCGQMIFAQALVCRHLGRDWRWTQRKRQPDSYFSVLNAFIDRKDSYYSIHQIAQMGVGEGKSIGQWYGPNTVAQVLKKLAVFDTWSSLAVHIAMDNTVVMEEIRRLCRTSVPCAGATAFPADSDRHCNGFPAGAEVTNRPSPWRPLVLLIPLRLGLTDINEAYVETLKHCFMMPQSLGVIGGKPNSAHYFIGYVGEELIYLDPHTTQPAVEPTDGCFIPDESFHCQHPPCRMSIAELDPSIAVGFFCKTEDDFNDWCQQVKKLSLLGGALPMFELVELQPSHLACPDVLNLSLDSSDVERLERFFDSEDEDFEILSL

[25] = molecular target: Phospholipase A2 (Homo sapiens, UniProt P04054); format: functional;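 note: confirmatory dose-response counterscreen on phospholipase A2, testing hits that came from an ultra-high-throughput screen for ATG4B inhibitors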
Chain of Phospholipase A2 (P04054 whole entry): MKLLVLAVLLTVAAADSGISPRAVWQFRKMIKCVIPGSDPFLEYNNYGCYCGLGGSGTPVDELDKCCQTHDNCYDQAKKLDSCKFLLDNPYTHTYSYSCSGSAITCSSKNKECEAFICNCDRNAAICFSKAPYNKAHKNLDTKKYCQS

## C=CCc1cccc2cc(C(=O)Nc3ccc(S(=O)(=O)Nc4nnc(CC)s4)cc3)c(=O)oc12
[1]
  IC50: 6.18 µM (active)
[2]
  IC50: 83.2 µM (active)
[3]
  IC50: 8.58 µM (active)
[4]
  IC50: 9.43 µM (active)

## O=C(c1ccc(S(=O)(=O)N2CCCCC2)cc1)N1CCN(CCN2C(=O)c3cccc4cccc(c34)C2=O)CC1
[5]
  EC50: > 20 µM (inactive)
[6]
  IC50: 6.57 µM (active)
[7]
  IC50: > 20 µM (inactive)
[8]
  EC50: > 20 µM (inactive)
[9]
  IC50: 8.84 µM (active)
[10]
  IC50: > 20 µM (inactive)
[11]
  IC50: 5.55 µM (active)
[12]
  IC50: 6.08 µM (active)
[13]
  IC50: 6.79 µM (active)
[14]
  IC50: > 20 µM (inactive)

## Clc1cc(CSc2ccccc2)nc(-c2ccccc2)n1
[15]
  EC50: > 150 µM (not active)
[16]
  EC50: 33.8 µM (active)
[17]
  IC50: > 100 µM (inactive)
[18]
  IC50: > 100 µM (not active)
[19]
  EC50: > 150 µM (not active)
[20]
  IC50: 14.1 µM (active)

## O=C(Nc1nc2ccccc2n1Cc1ccccc1Cl)c1ccc(Cl)cc1
[11]
  IC50: > 20 µM (inactive)
[12]
  IC50: > 20 µM (inactive)
[13]
  IC50: > 20 µM (inactive)
[14]
  IC50: > 20 µM (inactive)

## O=C(N/N=C/c1ccccc1Cl)c1nc(O)c2cc([N+](=O)[O-])ccc2n1
[21]
  IC50: 12.8 µM (active)
[22]
  IC50: > 158 µM (inactive)
[23]
  IC50: > 158 µM (not active)
[24]
  IC50: 10.1 µM (active)
[25]
  IC50: 30.2 µM (inactive)
[20]
  IC50: 6.91 µM (active)
